Assays:
Test in all cases: MIC on mass basis (Example V procedure)
Candida albicans = assay type: cell-based
Method: (§1) The essential procedure of Example I was followed with a series of phenolic compounds, with the exception that the test method was conducted on a mass (μg/ml) basis rather than a molecular (mol/ml) basis of the foregoing tests, since the long established phenol-coeffecient test is on a mass rather than molecular basis. Additionally, a different but closely related group of organisms were used in this test, in order to give a complete representative span on gram-negative, gram-positive and fungus organisms. Additionally, the phenolic derivatives chosen for test purposes include a number of derivatives which are presently accepted by the FDA as food-grade phenolic microbicides.
(§2) The same procedure of Example V was repeated but with combinations of mono-laurin (GML).
(§3) The procedure of Example V was repeated with combinations of glycerol mono-laurin (GML) and ethylenediamine tetraacetic acid (EDTA) as the calcium salt and in combination with BHA.

Escherichia coli = assay type: cell-based
Method: as §1, §2, §3

Nocardia asteroides = assay type: cell-based
Method: as §1, §2, §3

Pseudomonas aeruginosa = assay type: cell-based
Method: as §1, §2, §3

Saccharomyces cerevisiae = assay type: cell-based
Method: as §1, §2, §3

Staphylococcus aureus = assay type: cell-based
Method: as §1, §2, §3

Streptococcus agalactiae = assay type: cell-based
Method: as §1, §2, §3

Streptococcus mutans = assay type: cell-based, Streptococcus mutans (ATCC 10441)
Method: as §1, §2, §3

CCCCCCCCCCCC(=O)OCC(O)CO (stereo not shown) [GML, glycerol mono-laurin]
< 10 µg/mL: MIC of GML (Nocardia asteroides; Table 17, EDTA 0) | MIC of GML (Nocardia asteroides; Table 17, EDTA 250) | MIC of GML (Nocardia asteroides; Table 17, EDTA 500) | MIC of GML (Nocardia asteroides; Table 17, EDTA 1,000) | MIC of GML (Nocardia asteroides; Table 17, EDTA 5,000) | MIC of GML (Nocardia asteroides; Table 17, EDTA 10,000) | MIC of GML (Pseudomonas aeruginosa; Table 17, EDTA 10,000) | MIC of GML (Saccharomyces cerevisiae; Table 17, EDTA 1,000) | MIC of GML (Saccharomyces cerevisiae; Table 17, EDTA 5,000) | MIC of GML (Saccharomyces cerevisiae; Table 17, EDTA 10,000) | MIC of GML (Staphylococcus aureus; Table 17, EDTA 5,000) | MIC of GML (Staphylococcus aureus; Table 17, EDTA 10,000)
500 µg/mL: MIC of GML (Candida albicans; Table 17, EDTA 125) | MIC of GML (Candida albicans; Table 17, EDTA 250) | MIC of GML (Saccharomyces cerevisiae; Table 17, EDTA 125) | MIC of GML (Staphylococcus aureus; Table 17, EDTA 500)
> 10,000 μg/ml: MIC of GML (Candida albicans; Table 17, EDTA 0) | MIC of GML (Escherichia coli; Table 17, EDTA 0) | MIC of GML (Escherichia coli; Table 17, EDTA 125) | MIC of GML (Escherichia coli; Table 17, EDTA 250) | MIC of GML (Escherichia coli; Table 17, EDTA 500) | MIC of GML (Escherichia coli; Table 17, EDTA 1,000) | MIC of GML (Escherichia coli; Table 17, EDTA 5,000) | MIC of GML (Escherichia coli; Table 17, EDTA 10,000) | MIC of GML (Pseudomonas aeruginosa; Table 17, EDTA 0) | MIC of GML (Pseudomonas aeruginosa; Table 17, EDTA 125) | MIC of GML (Pseudomonas aeruginosa; Table 17, EDTA 250) | MIC of GML (Pseudomonas aeruginosa; Table 17, EDTA 500) | MIC of GML (Pseudomonas aeruginosa; Table 17, EDTA 1,000)
< 1,000 μg/ml: MIC (Saccharomyces cerevisiae; Table 13, Saccharomyces cerevisiae)
15.60 µg/mL: MIC (Nocardia asteroides; Table 13, Nocardia asteroides) | MIC (Streptococcus agalactiae; Table 13, Streptococcus agalactiae)
7.80 µg/mL: MIC (Nocardia asteroides; Table 14, Nocardia asteroides)
> 1,000: MIC (Candida albicans; Table 16, Candida albicans, no unit in table) | MIC (Escherichia coli; Table 16, Escherichia coli, no unit in table (Example 5 procedure, mass basis)) | MIC (Pseudomonas aeruginosa; Table 16, Pseudomonas aeruginosa, no unit in table)
100 µg/mL: MIC of GML (Candida albicans; Table 17, EDTA 500) | MIC of GML (Candida albicans; Table 17, EDTA 1,000) | MIC of GML (Candida albicans; Table 17, EDTA 5,000) | MIC of GML (Candida albicans; Table 17, EDTA 10,000) | MIC of GML (Nocardia asteroides; Table 17, EDTA 125) | MIC of GML (Pseudomonas aeruginosa; Table 17, EDTA 5,000) | MIC of GML (Saccharomyces cerevisiae; Table 17, EDTA 250) | MIC of GML (Saccharomyces cerevisiae; Table 17, EDTA 500) | MIC of GML (Staphylococcus aureus; Table 17, EDTA 1,000)
1,000: MIC (Saccharomyces cerevisiae; Table 16, Saccharomyces cerevisiae, no unit in table) | MIC (Staphylococcus aureus; Table 16, Staphylococcus aureus, no unit in table)
> 1,000 μg/ml: MIC (Candida albicans; Table 13, Candida albicans) | MIC (Candida albicans; Table 14, Candida albicans) | MIC (Escherichia coli; Table 13, Escherichia coli) | MIC (Escherichia coli; Table 14, Escherichia coli) | MIC (Pseudomonas aeruginosa; Table 13, Pseudomonas aeruginosa) | MIC (Pseudomonas aeruginosa; Table 14, Pseudomonas aeruginosa)
1,000 μg/ml: MIC (Saccharomyces cerevisiae; Table 14, Saccharomyces cerevisiae) | MIC of GML (Saccharomyces cerevisiae; Table 17, EDTA 0) | MIC of GML (Staphylococcus aureus; Table 17, EDTA 0) | MIC of GML (Staphylococcus aureus; Table 17, EDTA 125) | MIC of GML (Staphylococcus aureus; Table 17, EDTA 250)
10: MIC (Nocardia asteroides; Table 16, Nocardia asteroides, no unit in table)
31.25 µg/mL: MIC (Staphylococcus aureus; Table 13, Staphylococcus aureus) | MIC (Staphylococcus aureus; Table 14, Staphylococcus aureus) | MIC (Streptococcus agalactiae; Table 14, Streptococcus agalactiae) | MIC (Streptococcus mutans; Table 13, Streptococcus mutans) | MIC (Streptococcus mutans; Table 14, Streptococcus mutans)

From US4067997A, “Synergistic microbecidal composition and method” (priority 1976, dated 1978)
